Measured values: patent US20110166066A1, “CATESTATIN (CST) AND ITS VARIANTS FOR TREATMENT OF CARDIOVASCULAR AND METABOLIC DISORDERS” (priority 2008, published 2011)
Entries after “also recorded” stand apart in the source; their conditions may differ. Counter-ions that a name gives are not always drawn. Like-named read-outs stand apart in the source and are kept apart here. No end group written: not given here.

B1: vasostatin: another peptide derived from CgA, inhibited angiogenesis induced by VEGF (peptide, UniProt P10645 19-94, looked up)
Vasostatin-1: LPVNSPMNKGDTEVMKCIVEVISDTLSKPSPMPVSQECFETLRGDERILSILRHQNLLKELQDLALQGAKERAHQQ
modifications: Vasostatin-1

Legend:
[1] = tested on: Langendorff perfused rat heart; assay: ET-1 stimulated Langendorff heart preparations; settings: for ET-1 induced positive inotropism: ET-1 1 nM, WT-CST 33 nM, P370L-CST 110 nM, G364S-CST 200 nM
Procedure: ET-1 stimulated preparations—Hearts, stabilized for 20 min with KHs, were perfused for 10 min with ET-1 (1 nM) and then washed-out with KHs. After returning to control conditions, each heart was perfused with KHs containing a single concentration of either WT-Cts (33 nM), P370L-Cts (110 nM) or G364S-Cts (200 nM) plus 1 nM ET-1 for a further 10 min.

[2] = tested on: sympathochromaffin cells; settings: in vitro; cited from earlier work
[3] = tested on: Langendorff perfused rat heart; assay: Langendorff perfused rat heart, basal conditions: concentration-response of catestatin peptides; settings: for Activity rank order / Inotropism / Lusitropism: basal conditions, Table 2
Excerpt: Animals-Male Wistar rats (Morini, Bologna, Italy S.P.A.) weighing 180-250 g were housed (three per cage) in a ventilated cage rack system under standard conditions. Animals had food and water access ad libitum. The investigation conforms to the Guide for the Care and Use of Laboratory Animals, according to NIH Publication No. 85-23, revised 1996. Isolated heart preparation-Rats were anesthetized with ethyl carbamate (2 g/Kg rat, i.p.), the hearts rapidly excised and then transferred in ice-cold buffered Krebs-Henseleit solution (KHs). As previously described (23), the aorta was immediately cannulated with a glass cannula and connected to Langendorff apparatus to start perfusion at constant flow-rate (12 ml/min). Briefly, the apex of the left ventricle (LV) was pierced to avoid fluid accumulation. A water-filled latex balloon, connected to a pressure transducer ([…], Inc. USA), was inserted through mitral valve into the LV allowing isovolumic contractions and continuous mechanical parameters recording. Another pressure transducer located just above the aorta recorded coronary pressure (CP). […] Hemodynamic parameters were assessed using a PowerLab data acquisition system and analysed using Chart software (both purchased by ADInstruments, Basile, Italy). […] Curve fitting was accomplished in the program Kaleidagraph (Synergy Software, Reading, Pa.). Peptide EC50 and IC50 values were interpolated as the concentration that achieved 50% stimulation and inhibition, respectively. For analysis of phosphorylated proteins, levels were quantified using Bio-Rad QuantifyOne and volumes of phosphorylated proteins were divided by the levels of non-phosphorylated proteins to calculate fold activation. Stimulation of protein activity was expressed as fold increase over vehicle-treated control. The means and S.E.M. were calculated for each treatment. Multiple comparisons were made using either one-way ANOVA followed by Bonferroni's post-hoc test or two-way ANOVA. Statistical significance was concluded at p<0.05. Statistics were computed with the program InStat (GraphPad Software, Inc., San Diego, Calif.).

[4] = tested on: Langendorff perfused rat heart; assay: Isoproterenol stimulated Langendorff heart preparations; settings: for ISO stimulatory effect on LVP: measured at 5 min; for Coronary pressure (ISO alone or ISO + peptide) / Inotropism (ISO alone or ISO + peptide) / Lusitropism (ISO alone or ISO + peptide): Table 3, ISO 5 nM
Procedure: Isoproterenol stimulated preparations—Cardiac preparations were stabilized for 20 min with KHs and then perfused with 5 nM ISO for 10 min. ISO was washed-out with KHs. After returning to control conditions, each heart was perfused with KHs containing a single concentration of WT-Cts […] or G364S-Cts (200 nM) with 5 nM ISO for a further 10 min.
To further describe the antagonistic action of either WT-Cts (33 nM), P370L-Cts (110 nM) or G364S-Cts (200 nM) against ISO-dependent stimulation, dose-response curves were generated by perfusing the heart preparations with KHs enriched with increasing concentrations of ISO (0.1 nM to 1 μM) alone. These curves were then compared to those obtained by exposing other cardiac preparations to the same perfusion medium containing increasing concentrations of ISO (0.1 nM to 1 μM) plus a single concentration of either WT-Cts (33 nM) or P370L-Cts (110 nM) or G364S-Cts (200 nM).
Statistics—Data are expressed as the mean±SEM. Curve fitting was accomplished in the program Kaleidagraph (Synergy Software, Reading, Pa.). Peptide EC50 and IC50 values were interpolated as the concentration that achieved 50% stimulation and inhibition, respectively. For analysis of phosphorylated proteins, levels were quantified using Bio-Rad QuantifyOne and volumes of phosphorylated proteins were divided by the levels of non-phosphorylated proteins to calculate fold activation. Stimulation of protein activity was expressed as fold increase over vehicle-treated control. The means and S.E.M. were calculated for each treatment. Multiple comparisons were made using either one-way ANOVA followed by Bonferroni's post-hoc test or two-way ANOVA. Statistical significance was concluded at p<0.05. Statistics were computed with the program InStat (GraphPad Software, Inc., San Diego, Calif.).
To characterize the inhibitory action of either WT-CST (11, 33 or 110 nM), G364S-CST (200 nM) or P370L-CST (110 nM) toward ISO-dependent stimulation of cardiac function, heart preparations were perfused with KHs containing increasing concentrations of ISO (0.1 nM to 1 μM) either alone or in combination with one of the three CST variants.

[5] = tested on: Langendorff perfused rat heart; assay: as above; settings: G364S-CST 200 nM, P370L-CST 165 nM; for ISO-induced stimulation of LVP (concentration-response): ISO 0.1 nM to 1 μM, WT-CST 33 and 110 nM
[6] = tested on: WT and Chga knockout (KO) mice; assay: Response to PE or SNP and baroreflex sensitivity in unconscious mice; format: in vivo; settings: for Increase in SBP: 0.005 μg/g bw iv
Procedure: Unconscious mice. Surgical procedures for hemodynamic measurements: Hemodynamic evaluation in both WT and KO mice was performed under general anesthesia [ketamine (100 mg/kg) and xylazine (2.5 mg/kg)] while connected to a ventilator. LV pressure was monitored by Millar micromanometer catheter of size 1.4 French (0.46 mm; Millar Instruments, Houston, Tex.); it was inserted into the LV where phasic and mean pressure was continuously monitored (Gould, Cleveland, Ohio). A venous catheter (MicroRenathane tube MRE-033; Braintree Laboratories, Braintree, Mass.) is implanted on right femoral vein for injection of peptide and other reagents. All physiologic signals were acquired by WINDAQ (Dataq Instruments, Akron, Ohio) and analyzed by BP-Analysis software (developed for own laboratory).
Assessment of baroreflex sensitivity (BRS): BRS (in milliseconds per mmHg) was assessed by both high-pressure [phenylephrine (PE) bolus] and low-pressure [sodium nitroprusside (SNP) bolus] stimuli in unconscious mice. Although conscious animals provide optimal physiological data, a host of undesirable signals are triggered by physical activities, and sleep cycle alterations in behavioral state. Therefore, we have chosen to conduct the experiments in unconscious mice to avoid some of the pitfalls encountered in awake animals. The absolute changes of HR in response to changes in SBP induced by PE or SNP were subjected to linear regression analysis to determine BRS. To test the effect of CST on BRS in KO mice, CST was injected (40 μg/g bw iv) 30 min before the injection of PE or SNP through the catheter implanted into the femoral vein.
BRS to high-pressure stimulus. High pressure BRS was evaluated by recording diminution of HR in response to PE-induced hypertension. Changes in SBP and HR were recorded continuously for 0.5 min after a bolus injection of PE (0.005 μg/g bw iv). This dose was selected from a preliminary dose-response study (0.001-0.05 μg/g bw iv).
BRS to low-pressure stimulus. This was evaluated by recording increments in HR in response to SNP-induced fall in BP. Changes in SBP and HR were recorded continuously for 0.5 min after a bolus injection of SNP (0.05 μg/g bw iv). This dose was selected from a preliminary dose-response study (0.01-0.1 μg/g bw iv).

[7] = tested on: ECs; settings: cited from earlier work

| Molecule | ET-1 induced positive inotropism [1] | Rank order of potency, inhibition of catecholamine secretion [2] | Activity rank order [3] | Inotropism [3] | Lusitropism [3] | ISO induced coronary dilation ([4]; ISO 5 nM) | ISO-induced positive lusitropism ([4]; ISO 5 nM) | Rank order of potency against ISO ([4]; ISO 5 nM) | ISO stimulatory effect on LVP ([4]; ISO 5 nM) | Coronary pressure (ISO alone or ISO + peptide) [4] | Inotropism (ISO alone or ISO + peptide) [4] | Lusitropism (ISO alone or ISO + peptide) [4] | ISO-induced stimulation of LVP (concentration-response) [5] | other results |
| --- | --- | --- | --- | --- | --- | --- | --- | --- | --- | --- | --- | --- | --- | --- |
| G364S-CST: SEQ ID NO. 4 SSMKLSFRARAYSFRGPGPQL, naturally occurring Gly364Ser variant of catestatin (listed as Homo sapiens) | blocked | Pro370Leu>wild-type (WT)>Gly364Ser>Arg374Gln; also recorded: Pro370Leu>wildtype (WT)>Gly364Ser>Arg374Gln | Activity: WT-CST > P370L-CST > G364S-CST | No effect | No effect | blocked | blocked | Order of potency: WT-CST > G364S-CST > P370L-CST | abolished | Abolished | Abolished | Abolished | significantly inhibited | Other parameters tested (HR, LVP, +(LVdP/dT)max, −(LVdP/dT)max) ([3]; 11 to 200 nM): unaffected; Effect on RPP ([3]; even at 33 nM): significant increase; Block of ISO-dependent +(LVdP/dT)max ([4]; ISO 5 nM): > 100%; ISO-dependent decrease of T/−t ([4]; ISO 5 nM): blocked |
| endothelin-1 (CSCSSLMDKECVYFCHLDIIW; ends and bridges not checked; cysteine pairing not given here; UniProt P05305 53-73, looked up) [ET-1, endothelin-1, purchased from Sigma, reference compound] | – | – | – | – | – | – | – | – | – | – | – | – | – | Effect on LVP and +(LVdP/dT)max ([1]; 1 nM): increased; Effect on coronary constriction ([1]; ET-1 alone 1 and 10 nM): significant increase in coronary constriction |
| CC(C)NCC(O)c1ccc(O)c(O)c1 (centres unmarked) [ISO, Isoproterenol hydrochloride, reference compound] | – | – | – | – | – | – | – | – | – | Vasodilation | Positive | Positive | – | Effect of ISO alone on LVP ([4]; 5 nM to 1 μM): increased LVP significantly; EC50 ([4]; Rattus norvegicus, ISO alone, read-out: EC50 of ISO-mediated LVP stimulation (converted)): 2.14 nM; EC50 ([5]; Rattus norvegicus, Table 3, values match WT-CST 110 nM, read-out: EC50 (ISO on LVP, alone or + peptide) (converted)): 2.14 nM |
| P370L-CST: SEQ ID NO. 3 SSMKLSFRARAYGFRGPGLQL, naturally occurring Pro370Leu variant of catestatin (listed as Homo sapiens) | blocked | Pro370Leu>wild-type (WT)>Gly364Ser>Arg374Gln; also recorded: Pro370Leu>wildtype (WT)>Gly364Ser>Arg374Gln | Activity: WT-CST > P370L-CST > G364S-CST | Negative | No effect | remaining unchanged | failed to modulate | Order of potency: WT-CST > G364S-CST > P370L-CST | abolished | No effect | Abolished | Abolished | significantly inhibited | Concentration of maximum decrease in +(LVdP/dT)max [3]: 200 nM; Concentration of maximum decrease in LVP and RPP [3]: 200 nM; Effect on −(LVdP/dT)max [3]: marked decrease; Effect on CP (coronary pressure) ([3]; basal): not accompanied by changes; Effect on HR ([3]; basal, WT-Cts significant at 33 nM): not accompanied by changes; Inotropic effect (LVP, RPP) ([3]; from 110 to 200 nM): negative inotropism; Effect on +(LVdP/dT)max ([3]; starting from 110 nM): marked decrease |
| CNC[C@H](O)c1cccc(O)c1 [PE, phenylephrine] | – | – | – | – | – | – | – | – | – | – | – | – | – | PE-induced bradycardia ([6]; KO mice): completely abolished; Increase in SBP ([6]; KO mice): 45.6 mmHg; Decrease in HR ([6]; WT mice, 0.005 μg/g bw): 26 bpm; Increase in SBP ([6]; WT mice): 34.1 mmHg |
| B1 | – | – | – | – | – | – | – | – | – | – | – | – | – | Concentration at which effects were found [7]: 330 nM |
